Measurements from US20090325984A1, “USE OF 1,7-DIMETHYLXANTHINE FOR THE MANUFACTURE OF A NON-ANXIOGENIC PSYCHOANALEPTIC DRUG FOR THE TREATMENT OF A NEUROPSYCHIATRIC DISORDER” (Pierre Fabre Medicament, priority 2006, published 2009).
“Also recorded” adds a separate entry of the source.

What was measured:
Type in all cases: in vivo
[1] = system: male CD1 albino mice; assay: Raised cross-shaped labyrinth test in the mouse; settings: for anxiogenic effect in the raised cross-shaped labyrinth test / number of times the mice entered the open arm: 50 mg/kg; for number of times the mice entered the open arm: five minutes recording
Source text: The raised cross-shaped labyrinth test measures the animals' anxiety level based on its spontaneous aversion to voids (80). The apparatus is composed of four arms, placed at right angles, each measuring 18×6 cm; it rests on a pedestal 60 cm above the floor. Two of the arms have 6 cm-high side walls and are laid out end to end; these are the “closed” arms. […] After receiving their injections, the animals were isolated for twenty minutes and then placed in the labyrinth, at the center of the cross, with their head in the direction of a closed arm. Movements by the animals were recorded for five minutes by a video camera connected to image analysis software (Videotrack). The labyrinth was cleaned after each animal's test.

[2] = system: male CD1 albino mice; assay: Locomotor activity (horizontal and vertical) in the mouse
Protocol: The animals were placed in groups of 20 in plexiglass cages (38×24×18 cm) and kept in a ventilated animal facility where the temperature was maintained at 21±1° C. The animals had free access to water and food; artificial lighting established a day/night cycle (daytime between 7:00 a.m. and 7:00 p.m.). Experiments were conducted between 11:00 a.m. and 6:00 p.m. […] The solutions were stabilized with Cremophor EL (Sigma) to a final concentration of 15%. The solutions were injected by intraperitoneal route in a dose of 10 ml/kg. Before each test, the animals were isolated for 20 minutes in plexiglass cages (27×13×13 cm); they had food at their disposal. […] Photoelectric sensors in the chambers measured the horizontal and vertical activity of the animals, expressed as the number of interrupted beams, and the data was analyzed using a software application (Omnitech Electronics Inc., Columbus, Ohio, USA). […] Animals were placed in the activity monitoring system immediately after receiving the injection. The chambers were cleaned after each animal's test.

[3] = system: male CD1 albino mice; assay: Hole-board test in the mouse; settings: 50 mg/kg; for number of edges explored / number of holes explored: 20 minutes after injection, vs solvent
Protocol: The hole-board test investigates curiosity and is negatively affected by anxiety. This apparatus, placed 60 cm above the floor, consists of a square platform of opaque plastic, 40 cm on each side, with 16 evenly distributed holes of such size that an animal is able to pass its head through. The animals were injected and then isolated for 20 minutes before being placed at the center of the platform. The number of holes and edges explored by each animal was counted. The apparatus was cleaned after each animal's test.

[4] = system: male CD1 albino mice; assay: Black-white box test in the mouse; settings: 50 mg/kg; for amount of time spent in the lighted compartment: 20 minutes after injection, vs controls
Protocol: The black-white box test measures the state of anxiety of animals as a function of their aversion to light. The apparatus consists of two compartments of the same size (length=21 cm, width=15 cm, height=25 cm), one painted white and illuminated by a 40 W bulb, the other painted black and closed with a cover. The animal can pass from one compartment to the other via to an opening 5 cm-square in the lower portion of the partition. After the injection, the animals were isolated for 20 minutes and then placed in the black compartment with their head facing the corner opposite the opening. Using a mirror placed above the apparatus, the time before first entering the lit compartment, the number of times entering and the time spent in the lighted compartment were measured. The two compartments were cleaned between each test.

[5] = system: NMRI mice; assay: Four-plate test in the mouse; settings: intraperitoneal, 25 mg/kg (P<0.05)
Protocol: Experiments were performed using NMRI mice weighing 20 g to 30 g according to the method described by Aron et al. (Neuropharmacology, 1971, 10:459-469). Animals were placed in a plastic chamber whose floor consisted of four metal plates independently connected to an electric shock generator (2.5 mA; 1.5 s). The animal is initially left free to explore the apparatus for 15 seconds, after which it receives an electric shock each time it crosses between two metal plates. An increase in the number of crossings indicates anxiolytic activity, whereas a reduction in this number indicates anxiogenic activity.
(§1) Paraxanthine was dissolved under heating in sodium benzoate (30 mg/ml) with the addition of Cremophor EL to a final concentration of 15% and administered by intraperitoneal route at doses of 1 mg/kg, 10 mg/kg, 25 mg/kg and 50 mg/kg. Clobazam was used as the reference anxiolytic; it was dispersed in a 0.2% hydroxypropylmethylcellulose solution and administered by intraperitoneal route at a dose of 16 mg/kg.

[6] = system: male Wistar rats; assay: Vogel conflict test in the rat; settings: intraperitoneal, 1, 10, 25 and 50 mg/kg
Protocol: Experiments were performed using male Wistar rats weighing 180 g to 280 g according to the procedure described by Vogel et al. (Psychopharmacologia, 1971, 21: 1-7). Animals were deprived of water for 48 hours and then individually placed in a plexiglass chamber (15×32×34 cm) whose floor consisted of conducting metal bars spaced 1 cm apart. In the center of one of the chamber's walls was placed a metal cup connected to an electric shock generator (1.7 mA; 1 s).
During the test, the animal, which is left free to explore the apparatus, receives an electric shock each time it consumes water from the cup. A researcher blind to the treatment received by the animal counts the number of times that the animal consumes water and is punished by the electric shock. An increase in the number of times an animal consumes water indicates an anxiolytic effect, whereas a reduction in this number indicates an anxiogenic effect.
as §1, with “32” for “16”

Cn1c(=O)c2c(ncn2C)n(C)c1=O [caffeine, 1,3,7-Trimethylxanthine]
anxiogenic effect in the raised cross-shaped labyrinth test [1]: is anxiogenic; also recorded: has an anxiogenic effect | number of times the mice entered the open arm [1]: reduced the number of times the mice entered the open arm | duration of stimulation of horizontal locomotor activity ([2]; intraperitoneal, 10 mg/kg): at least one hour | vertical locomotor activity ([2]; intraperitoneal, 10 mg/kg, significant only 30 minutes after the injection (P<0.05)): stimulated the animals' vertical locomotor activity | horizontal locomotor activity ([2]; intraperitoneal, 10 mg/kg, within the first 10 minutes (P<0.05)): stimulated animals' horizontal locomotor activity | duration of stimulation of horizontal locomotor activity ([2]; intraperitoneal, 25 mg/kg): 40 min | horizontal locomotor activity ([2]; intraperitoneal, 25 mg/kg, 10 minutes after the injection (P<0.05)): stimulated this activity | duration of decrease of vertical activity ([2]; intraperitoneal, 100 mg/kg): 40 min | vertical locomotor activity ([2]; intraperitoneal, 100 mg/kg, from the first measurement period (P<0.05)): vertical activity decreased relative to that of the controls | horizontal activity for one hour (cumulative) ([2]; intraperitoneal, 60 minutes): stimulated by caffeine only at doses of 10 mg/kg (P<0.01) and 25 mg/kg (P<0.05) | horizontal locomotor activity ([2]; intraperitoneal, doses lower than 10 mg/kg or higher than 25 mg/kg, vs solvent alone): no significant difference | range of doses with stimulating effect on locomotor activity ([2]; same conditions): 10 to 25 mg/kg | stimulating effect on locomotor activity compared with paraxanthine ([2]; same conditions): the effect is less | anxiogenic effect in the hole-board test [3]: has an anxiogenic effect; also recorded: had an anxiogenic effect | number of edges explored [3]: significantly decreased | number of holes explored [3]: significantly decreased | anxiolytic effect in the black-white box test [4]: does not; also recorded: did not have an anxiolytic effect | amount of time spent in the lighted compartment [4]: did not change

Cn1c(=O)[nH]c2ncn(C)c2c1=O [paraxanthine, 1,7-dimethyl-3,7-dihydro-1H-purine-2,6-dione]
anxiolytic activity (number of crossings between two plates) [5]: has anxiolytic activity; also recorded: exhibited anxiolytic activity | anxiogenic effect in the raised cross-shaped labyrinth test [1]: not the case | anxiolytic effect in the raised cross-shaped labyrinth test ([1]; 50 mg/kg (high doses)): has an anxiolytic effect | number of times the mice entered the open arm [1]: had no effect | time spent by the animals in the open arm ([1]; increasing doses from 1 mg/kg to 50 mg/kg (P<0.05 at 50 mg/kg)): increased until a significant effect was exhibited at a dose of 50 mg/kg | stimulating effect on locomotor activity ([2]; doses from 1 mg/kg up to 50 mg/kg): dose-dependant stimulating effect | duration of stimulation of horizontal locomotor activity ([2]; intraperitoneal, 1 mg/kg): 30 min | horizontal locomotor activity ([2]; intraperitoneal, 1 mg/kg, from the first 10-minute measurement period, vs solvent (P<0.05 or P<0.01)): stimulated horizontal locomotor activity | vertical locomotor activity ([2]; intraperitoneal, comparable to horizontal activity, effect of 1 mg/kg more difficult to demonstrate): stimulated the animals' vertical locomotor activity | duration of stimulation of horizontal locomotor activity ([2]; intraperitoneal, doses higher than 1 mg/kg): at least one hour | horizontal locomotor activity ([2]; intraperitoneal, doses higher than 1 mg/kg (P<0.01 or P<0.001)): the effect was more marked | anxiogenic effect in the hole-board test [3]: not the case; also recorded: did not | number of edges explored [3]: did not have any effect | number of holes explored [3]: did not have any effect | anxiolytic effect in the black-white box test [4]: has an anxiolytic effect; also recorded: exhibited an anxiolytic effect | amount of time spent in the lighted compartment [4]: increased the amount of time spent in the lighted compartment | number of times entering the lighted compartment ([4]; vs animals treated with caffeine (P<0.05)): went into the lighted compartment more often than animals treated with caffeine | anxiogenic effect in the Vogel conflict test [6]: did not have an anxiogenic effect; also recorded: did not demonstrate an anxiogenic effect | number of times animals consumed water [6]: did not decrease
